# Values of other authors as cited in patent publication US20090233885A1, “Compositions and Methods for Fat Reduction” (priority 2006, published 2009).
# Tests used:
# [1] = total administered amount per treatment
Substance,"total administered amount above which cholinergic side effects (nausea, vomiting, diarrhea, flushing, sweating, bradycardia) occur [1]",cell specificity of effect (adipose and muscle cells)
phosphatidylcholine [PC],exceeds 2000 mg per treatment,
sodium deoxycholate [DC],,nonspecific effects on both adipose and muscle cells
